Results reported in patent US20220193242A1, “IMMUNOPHILIN-DEPENDENT INHIBITORS AND USES THEREOF” (The Regents of the University of California, priority 2019, published 2022).

Legend:
Src and HA-FKBP12 = biological target: T1, Src and HA-FKBP12 (Homo sapiens, UniProt P12931+P62942); test: Immunoprecipitation of HA-FKBP12 from Jurkat cell lysate; format: binding; conditions: Jurkat cell lysate 1 mg/mL, 1 μM compound
T1 construct: endogenous in cells; host or cells: Jurkat cell lysate (Src); HA-FKBP12 added as purified protein
Method: FIGS. 2A-2C. […] Fractions of 0.5 mL were collected and analyzed by SDS-PAGE.
FIG. 23. […] Pulldown was performed with Jurkat cell lysate (1 mg/mL, 200 μL), supplemented with 2 μg HA-FKBP12. Pulldown/wash buffer: 50 mM Tris 7.4, 120 mM NaCl, 1% NP-40, 1 mM EDTA, phosphatase/protease inhibitors.

[1] = system: TCR signaling (phospho-tyrosine) in Jurkat cells; test: CD3 crosslinking (OKT3) triggered T cell activation in Jurkat cells, Western blot; format: cell-based
Method: (§1) FIGS. 3A-3D. […] The phosphotyrosine levels were monitored by Western blot at various time points over 24 h.
FIG. 25. […] Jurkat cells (1×10^6/mL) were treated with the indicated drugs for 1 h, then stimulated with anti-CD3 mAb OKT3 (5 μg/mL) for 5 min. before lysis and analysis.

K562 = conditions: K562, 72 h treatment
Method: FIG. 27. […] K562 (seeding density 5×10^4/mL) cells, 72 h treatment.

[2] = system: phosphotyrosine levels in Jurkat cells; test: Drug washout, phosphotyrosine levels over 24 h in Jurkat cells; format: cell-based; conditions: 100 nM for 1 h
Method: as §1
FIG. 26. […] Jurkat cells (1×10^6/mL) were treated with 100 nM of the indicated compounds for 1 h, then were washed 3 times with PBS and resuspended in culture media. Samples were taken at the indicated time points and lysed immediately.

FKBP12 [3] = biological target: T2, FKBP12 (Homo sapiens, UniProt P62942); test: FKBP12 dependence of activity (FIG. 19)
KRAS and CypA = KRAS and CypA (Homo sapiens, UniProt P01116+P62937, G12C); test: Melting curve of the KRAS.CypA complex; format: binding
HRAS, CypA, Sos = HRAS, CypA, Sos (Homo sapiens, UniProt P01112+P62937, M72C); test: HRAS.CypA ternary complex and Sos-mediated nucleotide exchange; format: biochemical
Method: FIG. 44. […] Assay conditions: 1 μM Ras.GDP, 1 μM Mant-GDP, 20 mM EPES 7.5, 150 mM NaCl, 10 mM EDTA or 1 μM Sos. 95A is synonymous to 06-031.

Ras.Raf binding = Ras.Raf binding pulldown; conditions: HRAS.CypA ternary complex
Method: FIG. 45. […] Pulldown conditions: 100 nM KRAS, 50 μg/mL BSA, 20 mM HEPES 7.5, 150 mM NaCl, 5 mM MgCl2, 1 mM […], 1% NP-40. GppNHp loaded proteins were prepared by EDTA-mediated nucleotide exchange.

LRRK2 = test: Inhibition of LRRK2 autophosphorylation; format: cell-based
Method: (§2) FIGS. 4A-4C. A general approach to construct FKBP-dependent, programmable kinase inhibitors. (FIG. 4A) Structures of lapatinib and FK-lapatinib, their effects on HER2 signaling and the growth inhibition of SK-BR-3 cells by these compounds. (FIGS. 4B-4C) Structures of GNE7915 and FK-GNE7915 and their inhibition of LRRK2 autophosphorylation.
FIG. 30. […] 3T3 or RAW264.7 cells (MJFF cell line), 2 h treatment.
(§3) We extended our design strategy and prepared two other bispecific ligands based on the structures of an FDA-approved HER2/EGFR inhibitor (lapatinib) and an LRRK2 inhibitor in clinical development (GNE7915). […] With the three case studies presented above, we cautiously anticipate that the same workflow could be applied to convert other kinase inhibitors into FKBP-dependent formats with similar if not better cellular activities.

FKBP12 [4] = biological target: T2, FKBP12; test: Fluorescence polarization assay of binding to FKBP12
SK-BR-3 cells = test: Growth inhibition of SK-BR-3 cells; format: cell-based
Source text: as §2, §3

HER2 = HER2 signaling in SK-BR-3 cells; format: cell-based; conditions: 1 μM
Source text: as §2, §3

[5] = system: 139 kinases captured by the probe XO44; test: In-cell kinase occupancy profiling with chemoproteomic probe XO44 in Jurkat cells; format: cell-based; conditions: 100 nM, among 139 kinases captured by XO44, Jurkat cells

T2 sequence (P62942 whole entry): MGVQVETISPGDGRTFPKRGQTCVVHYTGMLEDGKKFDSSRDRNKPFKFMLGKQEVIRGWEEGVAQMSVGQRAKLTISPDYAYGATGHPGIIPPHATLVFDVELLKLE
T1 sequence (P12931 2-536 limits assumed): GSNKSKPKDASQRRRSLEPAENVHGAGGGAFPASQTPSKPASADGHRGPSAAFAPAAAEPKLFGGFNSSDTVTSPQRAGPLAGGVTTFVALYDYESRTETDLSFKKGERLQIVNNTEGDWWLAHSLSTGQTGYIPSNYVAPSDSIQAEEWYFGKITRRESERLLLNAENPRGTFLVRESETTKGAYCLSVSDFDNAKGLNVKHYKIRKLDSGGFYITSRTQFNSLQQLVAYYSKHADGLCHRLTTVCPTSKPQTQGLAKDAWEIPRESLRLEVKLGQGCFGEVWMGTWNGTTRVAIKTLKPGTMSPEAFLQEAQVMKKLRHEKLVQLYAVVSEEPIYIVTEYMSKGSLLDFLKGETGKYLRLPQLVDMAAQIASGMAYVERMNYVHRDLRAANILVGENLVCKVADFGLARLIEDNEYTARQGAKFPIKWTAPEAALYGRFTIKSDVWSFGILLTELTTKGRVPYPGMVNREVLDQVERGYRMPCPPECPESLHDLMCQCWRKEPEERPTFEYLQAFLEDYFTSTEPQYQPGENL
T1 sequence (P62942 whole entry): as the sequence (P62942 whole entry) above

In the case of `CO[C@H]1C[C@@H](C)C/C(C)=C/[C@@H](CCCC(=O)N2CCN(c3cc(Nc4ncc(C(=O)Nc5c(C)cccc5Cl)s4)nc(C)n3)CC2)C(=O)C[C@H](O)[C@@H](C)[C@@H](/C(C)=C/[C@@H]2CC[C@@H](O)[C@H](OC)C2)OC(=O)[C@@H]2CCCCN2C(=O)C(=O)[C@]2(O)O[C@H]1[C@@H](OC)C[C@H]2C` [Compound 05-022], the “co-immunoprecipitation of Src with HA-FKBP12” value (Src and HA-FKBP12) is reported as “form a stable ternary complex”, the “inhibition of phosphotyrosine signal” value [1] is reported as “potently inhibits” and the growth inhibition (K562) is reported as “FKBP-dependent growth inhibition”. The “durability of effect after washout” value ([2]; washed 3 times with PBS) was “durable after washout” and the “dependence of activity on FKBP12” value (FKBP12 [3]) was “dependent on FKBP12”.
`C=CC(=O)N1CCN(c2nc(NCCC(=O)NCCNC(=O)CCC[C@@H](C)[C@@H](O)[C@H]3C(=O)N[C@@H](CC)C(=O)N(C)CC(=O)N(C)[C@@H](CC(C)C)C(=O)N[C@@H](C(C)C)C(=O)N(C)[C@@H](CC(C)C)C(=O)N[C@@H](C)C(=O)N[C@H](C)C(=O)N(C)[C@@H](CC(C)C)C(=O)N(C)[C@@H](CC(C)C)C(=O)N(C)[C@@H](C(C)C)C(=O)N3C)nc3c(F)c(-c4c(O)cccc4F)c(Cl)cc23)CC1` [Compound 07-014] was tested, and the “melting curve of the complex” value (KRAS and CypA) was 2-stage melting curve.
`C=CC(=O)Nc1cc(Cl)cc(NC(=O)c2cnn(-c3ccc(OCC(=O)N4CCN(C(=O)CCC[C@@H](C)[C@@H](O)[C@H]5C(=O)N[C@@H](CC)C(=O)N(C)CC(=O)N(C)[C@@H](CC(C)C)C(=O)N[C@@H](C(C)C)C(=O)N(C)[C@@H](CC(C)C)C(=O)N[C@@H](C)C(=O)N[C@H](C)C(=O)N(C)[C@@H](CC(C)C)C(=O)N(C)[C@@H](CC(C)C)C(=O)N(C)[C@@H](C(C)C)C(=O)N5C)CC4)cc3)c2C(F)(F)F)c1` [Compound 08-058] was tested, and the Sos-mediated nucleotide exchange (HRAS, CypA, Sos; 1 μM Ras.GDP, 1 μM Mant-GDP, 1 μM Sos) was “inhibits Sos-mediated nucleotide exchange”, the ternary complex formation (HRAS, CypA, Sos; HRAS, CypA) was “forms a ternary complex” and the Ras.Raf binding (Ras.Raf binding) was “does not seem to impair Ras.Raf binding”.
In the case of `CCNc1nc(Nc2cc(F)c(C(=O)N3CCN(C(=O)CCC[C@@H]4/C=C(\C)C[C@H](C)C[C@H](OC)[C@H]5O[C@@](O)(C(=O)C(=O)N6CCCC[C@H]6C(=O)O[C@H](/C(C)=C/[C@@H]6CC[C@@H](O)[C@H](OC)C6)[C@H](C)[C@@H](O)CC4=O)[C@H](C)C[C@@H]5OC)CC3)cc2OC)ncc1C(F)(F)F` [Compound 08-074], the “cellular activity compared to parent compound” value (LRRK2; 3T3 or RAW264.7 cells, 2 h treatment) is reported as “more potent cellular activity than its parent compound GNE-7915”.
In the case of `C=CC[C@@H]1/C=C(\C)C[C@H](C)C[C@H](OC)[C@H]2O[C@@](O)(C(=O)C(=O)N3CCCC[C@H]3C(=O)O[C@H](/C(C)=C/[C@@H]3CC[C@@H](O)[C@H](OC)C3)[C@H](C)[C@@H](O)CC1=O)[C@H](C)C[C@@H]2OC` [FK506, tacrolimus, reference compound], the “co-immunoprecipitation of Src with HA-FKBP12” value (Src and HA-FKBP12) is reported as “not”.
`CO[C@H]1C[C@@H](C)C/C(C)=C/[C@@H](CCCC(=O)N2CCN(c3cc(Nc4ncc(C(=O)Nc5c(C)cccc5Cl)s4)nc(C)n3)CC2)C(=O)C[C@H](O)[C@@H](C)[C@@H](/C(C)=C/[C@@H]2CC[C@@H](O)[C@H](OC)C2)OC(=O)[C@@H]2CCCCN2C(=O)C(=O)[C@]2(O)O[C@H]1[C@@H](OC)C[C@H]2C` [FK506-Dasatinib] showed a Kd (FKBP12 [4]) of 23 nM.
`CCNc1nc(Nc2cc(F)c(C(=O)N3CCN(C(=O)CCC[C@@H]4/C=C(\C)C[C@H](C)C[C@H](OC)[C@H]5O[C@@](O)(C(=O)C(=O)N6CCCC[C@H]6C(=O)O[C@H](/C(C)=C/[C@@H]6CC[C@@H](O)[C@H](OC)C6)[C@H](C)[C@@H](O)CC4=O)[C@H](C)C[C@@H]5OC)CC3)cc2OC)ncc1C(F)(F)F` [FK-GNE7915] was tested, and the “inhibition of LRRK2 autophosphorylation compared to parent” value (LRRK2) was “more efficacious than its parent molecule GNE7915”.
In the case of `CO[C@H]1C[C@@H](C)C/C(C)=C/[C@@H](CCCC(=O)N2CCN(Cc3ccc(-c4ccc5ncnc(Nc6ccc(OCc7cccc(F)c7)c(Cl)c6)c5c4)o3)CC2)C(=O)C[C@H](O)[C@@H](C)[C@@H](/C(C)=C/[C@@H]2CC[C@@H](O)[C@H](OC)C2)OC(=O)[C@@H]2CCCCN2C(=O)C(=O)[C@]2(O)O[C@H]1[C@@H](OC)C[C@H]2C` [FK-lapatinib], the “IC50 of growth inhibition” value (SK-BR-3 cells) is reported as “comparable to that of lapatinib” and the HER2 signaling (HER2) is reported as “suppressed”.
In the case of `Cc1nc(Nc2ncc(C(=O)Nc3c(C)cccc3Cl)s2)cc(N2CCN(CCO)CC2)n1` [dasatinib, reference compound], the “time after drug washout at which phosphotyrosine signal is restored” value ([2]; then drug removed) is reported as ≤ 1 h and the “number of kinases inhibited >70%” value [5] is reported as 9.
